In patent publication US4272630A, “D-Homosteroids” (priority 1979, dated 1981):
Converted amounts (≈) assume the structure as drawn.

Assays:
[1] = test system: granulomas in female rats; assay: Felt Pellet Test (granuloma reduction, oral); type: in vivo; conditions: Rattus norvegicus, four successive days, female rats (90-110 g), removed on 5th day, read-out: Felt Pellet ED40 (dosage which gave a 40% reduction of the granulation weight)
Description: (§1) The tests carried out can be described as follows:
Two felt pellets were implanted under the skin (scapula region) in female rats (90-110 g) under ether narcosis. The D-homosteroids were administered orally on four successive days commencing on the day of the implantation. On the 5th day, the rats were killed, and the granulomas which formed were removed, dried and weighed. The ED40, namely that dosage which gave a 40% reduction of the granulation weight, was determined.

[2] = test system: ear of male mice (oedema); assay: Mouse Ear Test (oedema inhibition, topical, croton oil); type: in vivo; conditions: dissolved in croton oil, applied 15 seconds under 600 g to right ear of male mice (25-30 g), 4 hours, read-out: Mouse Ear EC50 (concentration which gave a 50% oedema inhibition in comparison with a control group)
Description: as §1
The D-homosteroids, dissolved in croton oil, were applied for 15 seconds under a pressure of 600 g to the right ear of male mice weighing 25-30 g. The left ear served as the control. Four hours later, the mice were killed, and tissue was removed with a punch from the same position on treated and untreated ears and weighed. The EC50, namely that concentration which gave a 50% oedema inhibition in comparison with a control group, was determined.

Question: With COC(=O)C1(OC(C)=O)C=CCC2C3CCC4=CC(=O)C=CC4(C)C3(F)C(O)CC21C [17-acetoxy-9-fluoro-11β-hydroxy-3-oxo-D-homoandrosta-1,4,16-triene-17aβ-carboxylic acid methyl ester] as the molecule, how does the ED40 [1] read?
Answer: 6 mg/kg

Question: And the EC50 [2]?
Answer: 10 µg/mL (≈ 23.1 µM)

Question: COC(=O)C1(OC(C)=O)C=CCC2C3CCC4=CC(=O)C=CC4(C)C3C(O)CC21C [17aα-acetoxy-11β-hydroxy-3-oxo-D-homoandrosta-1,4,16-triene-17aβ-carboxylic acid methyl ester] was tested. Which ED40 [1] did it give?
Answer: 6.4 mg/kg

Question: What about the EC50 [2] of the same molecule?
Answer: 30 µg/mL (≈ 72.4 µM)
